Test results reported in publication PMC3927586, “Protein kinase C-delta inactivation inhibits the proliferation and survival of cancer stem cells in culture and in vivo” (BMC Cancer, 2014).

What was measured:
recombinant PKCδ = biological target: T1, recombinant PKCδ (Homo sapiens, UniProt Q05655); experiment: PKC kinase activity assay (Z-lyte), PKCδ; format: biochemical; conditions: in vitro kinase assay; read-out: PKCδ IC50
T1 construct: purchased Invitrogen
Procedure: (§1) Assays were carried out using recombinant PKCδ or PKCα, (Invitrogen) and the Z-lyte Kinase Assays (Invitrogen) with a “PKC-kinase-specific” peptide substrate. FRET interactions produce a change in fluorescence (ex455/ex520) upon phosphorylation. The kit was used according to the manufacturer’s instructions.

PCSC cells = experiment: Cytotoxicity (LDH release) in pancreatic cancer stem cells; format: cell-based, human
Procedure: (§2) LDH release was assessed by spectrophotometrically measuring the oxidation of NADH in both the cells and media. Cells were seeded in 24-well plates, and exposed to PKCδ inhibitors or vehicle. After different times of exposure, cytotoxicity was quantified by a standard measurement of LDH release with the use of the LDH assay kit (Roche Molecular Biochemicals) according to the manufacturer’s protocol. Briefly, total culture medium was cleared by centrifugation. For assay of released LDH, supernatants were collected. To assess total LDH in cells, Triton X-100 was added to vehicle (control) wells to release intracellular LDH. LDH assay reagent was added to lysates or supernatants and incubated for up to 30 min at room temperature in dark, the reaction was stopped, and the absorbance was measured at 490 nm. The percentage of LDH release was then calculated as the LDH in the supernatants as a fraction of the total LDH.
Figure 2 Effects of PKCδ inhibitors on human cancer stem cells. (A) PCSC and PrCSC cells at 80% confluence were exposed to rottlerin. DMSO served as vehicle control (Vehicle). After 24 and 72 hr of exposure, cell mass was evaluated by MTT assay. Control values were normalized to 100%. p values for comparison between treatments reached significance at 24 hr of exposure (p≤0.01) for both cell types, and remained significant at 72 hr. (B) PCSC and PrCSC cells at 50% confluence were exposed to rottlerin. Cytotoxicity was evaluated by LDH-release assay. Total maximal LDH release was assigned the arbitrary value of 100% (Control). p values for comparison between effects of treatments on LDH release reached significance at 24 hr of exposure (p<0.01) for both cell types, and remained significant at 72 hr. (C) Effects of PKCδ inhibitor on tumor cell clonogenic capacity. PCSC were exposed to vehicle or rottlerin (10 μM) for 6, 18, 24, or 48 hr. Viable cells were enumerated and re-plated in media without inhibitor, and colony numbers were quantitated 15 days later. p values for comparison of treatment effects on clonogenic capacity reached significance (p=0.005) at 18 hr of exposure and remained significant for all subsequent exposure times. The insert is a photograph of stained colonies on plates. (D) Structures of staurosporine, rottlerin, second-generation (KAM1) and third-generation (BJE6-106) derivatives. (E) PCSC and PrCSC cells at 50% confluence were exposed to KAM1 at the indicated concentrations. DMSO served as vehicle control (Vehicle). Cytotoxicity was evaluated by LDH-release assay, as in panel B. p values for comparison between treatment effects on LDH release reached significance at 24 hr of exposure to 2.5 μM KAM1 for PCSC cells and at 10 μM for PrCSC (p≤0.01), and remained significant at 72 hr for all concentrations of KAM1. Error bars represent SEM.

[1] = tested on: non-transformed cell lines; parameters: method as in PMID 21990324; conditions: cited from earlier work
PrCSC cells = experiment: Cytotoxicity (LDH release) in prostate cancer stem cells; format: cell-based, human
Procedure: as §2
Figure 2 Effects of PKCδ inhibitors on human cancer stem cells. (A) PCSC and PrCSC cells at 80% confluence were exposed to rottlerin. DMSO served as vehicle control (Vehicle). After 24 and 72 hr of exposure, cell mass was evaluated by MTT assay. Control values were normalized to 100%. p values for comparison between treatments reached significance at 24 hr of exposure (p≤0.01) for both cell types, and remained significant at 72 hr. (B) PCSC and PrCSC cells at 50% confluence were exposed to rottlerin. Cytotoxicity was evaluated by LDH-release assay. […] Viable cells were enumerated and re-plated in media without inhibitor, and colony numbers were quantitated 15 days later. p values for comparison of treatment effects on clonogenic capacity reached significance (p=0.005) at 18 hr of exposure and remained significant for all subsequent exposure times. […] Cytotoxicity was evaluated by LDH-release assay, as in panel B. p values for comparison between treatment effects on LDH release reached significance at 24 hr of exposure to 2.5 μM KAM1 for PCSC cells and at 10 μM for PrCSC (p≤0.01), and remained significant at 72 hr for all concentrations of KAM1. […]

recombinant PKCα = biological target: T2, recombinant PKCα (Homo sapiens, UniProt P17252); experiment: PKC kinase activity assay (Z-lyte), PKCα; format: biochemical; conditions: in vitro kinase assay; read-out: PKCα IC50
T2 construct: purchased Invitrogen
Procedure: as §1

T1 sequence (Q05655 whole entry): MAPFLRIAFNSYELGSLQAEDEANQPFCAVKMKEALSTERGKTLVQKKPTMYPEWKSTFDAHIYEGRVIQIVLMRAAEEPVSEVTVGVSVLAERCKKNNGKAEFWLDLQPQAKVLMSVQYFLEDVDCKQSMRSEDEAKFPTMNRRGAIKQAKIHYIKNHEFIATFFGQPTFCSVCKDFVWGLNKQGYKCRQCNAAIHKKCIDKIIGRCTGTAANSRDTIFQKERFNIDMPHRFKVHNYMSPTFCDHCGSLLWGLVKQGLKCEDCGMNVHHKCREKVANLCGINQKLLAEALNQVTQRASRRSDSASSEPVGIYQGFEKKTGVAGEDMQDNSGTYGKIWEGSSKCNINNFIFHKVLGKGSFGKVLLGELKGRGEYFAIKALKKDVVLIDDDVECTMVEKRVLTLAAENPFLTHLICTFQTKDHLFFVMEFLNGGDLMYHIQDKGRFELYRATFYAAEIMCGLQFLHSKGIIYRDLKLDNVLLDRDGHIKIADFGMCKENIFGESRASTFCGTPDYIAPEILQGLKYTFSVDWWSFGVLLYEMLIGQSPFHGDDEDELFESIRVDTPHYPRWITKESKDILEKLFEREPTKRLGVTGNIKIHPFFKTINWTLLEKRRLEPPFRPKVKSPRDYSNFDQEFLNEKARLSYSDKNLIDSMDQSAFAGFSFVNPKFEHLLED

## CC1(C)C=Cc2cc(CCn3c4ccccc4c4ccccc43)cc(C(=O)/C=C/c3ccccc3)c2O1 [KAM1]
Recombinant PKCδ
  IC50: 2000 nM
PCSC cells
  lowest concentration inducing cytotoxicity (LDH release) in PCSC: 2.5 µM
PCSC cells; 24 hr of exposure, p≤0.01
  concentration at which LDH release reached significance in PCSC: 2.5 µM
[1]
  cytotoxicity in non-transformed cell lines: not producing cytotoxicity
PrCSC cells
  lowest concentration inducing cytotoxicity (LDH release) in PrCSC: 5 µM
PrCSC cells; 24 hr of exposure, p≤0.01
  concentration at which LDH release reached significance in PrCSC: 10 µM
Recombinant PKCα
  IC50: 157 µM
